In one assay the target is T1, human ETA receptors (Homo sapiens, UniProt P25101).
T1 construct: endogenous in cells; host or cells: TE 671 cells (ATCC HTB 139), membrane preparation
T1 sequence (P25101 21-427): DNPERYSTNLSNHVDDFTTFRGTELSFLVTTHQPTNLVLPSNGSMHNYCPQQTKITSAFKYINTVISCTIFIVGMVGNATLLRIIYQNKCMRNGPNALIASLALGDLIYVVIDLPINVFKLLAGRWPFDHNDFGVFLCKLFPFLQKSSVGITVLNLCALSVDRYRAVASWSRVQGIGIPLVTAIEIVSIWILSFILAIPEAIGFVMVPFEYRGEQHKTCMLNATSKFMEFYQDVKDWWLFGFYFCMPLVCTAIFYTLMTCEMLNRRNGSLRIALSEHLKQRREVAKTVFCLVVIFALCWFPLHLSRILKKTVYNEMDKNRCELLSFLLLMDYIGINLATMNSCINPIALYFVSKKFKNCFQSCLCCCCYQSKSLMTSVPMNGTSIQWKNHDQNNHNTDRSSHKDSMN
The assay can be described thus: Endothelin binding inhibition, Binding Test #1: competition with 125I-ET-1 for ETA receptors on TE 671 cell membranes. On the procedure:
(§1) Cells from multiple flasks were collected by scraping, pooled and centrifuged for 10 min at 190×g. The cells were resuspended in phosphate buffered saline (PBS) containing 10 mM EDTA using a Tenbroeck homogenizer. The suspension was centrifuged at 4° C. at 57,800×g for 15 min, the pellet was resuspended in 5 mL of buffer A (5 mM HEPES buffer, pH 7.4 containing aprotinin (100 KIU/mL)) and then frozen and thawed once. 5 mL of Buffer B (5 mM HEPES Buffer, pH 7.4 containing 10 mM MnCl2 and 0.001% deoxyribonuclease Type 1) was added, the suspension mixed by inversion and then incubated at 37° C. for 30 minutes. The mixture was centrifuged at 57,800×g as described above, the pellet washed twice with buffer A and then resuspended in buffer C (30 mM HEPES buffer, pH 7.4 containing aprotinin (100 KIU/mL) to give a final protein concentration of 2 mg/mL and stored at −70° C. until use.
The membrane suspension (50 μL), containing up to 8 μg of membrane protein, was added to each of (A), (B), or (C). […] Alternatively, the incubation was conducted at 24° C.
The supernatant, containing unbound radioactivity, was decanted and the pellet counted on a Genesys multiwell gamma counter. The degree of inhibition of binding (D) was calculated according to the following equation: [formula]
Each test was generally performed in triplicate.

Another assay concerns the target T2, human ETB receptor (Homo sapiens, UniProt P24530).
T2 construct: expressed in transfected cells; host or cells: COS7 cells
T2 sequence (P24530 27-442): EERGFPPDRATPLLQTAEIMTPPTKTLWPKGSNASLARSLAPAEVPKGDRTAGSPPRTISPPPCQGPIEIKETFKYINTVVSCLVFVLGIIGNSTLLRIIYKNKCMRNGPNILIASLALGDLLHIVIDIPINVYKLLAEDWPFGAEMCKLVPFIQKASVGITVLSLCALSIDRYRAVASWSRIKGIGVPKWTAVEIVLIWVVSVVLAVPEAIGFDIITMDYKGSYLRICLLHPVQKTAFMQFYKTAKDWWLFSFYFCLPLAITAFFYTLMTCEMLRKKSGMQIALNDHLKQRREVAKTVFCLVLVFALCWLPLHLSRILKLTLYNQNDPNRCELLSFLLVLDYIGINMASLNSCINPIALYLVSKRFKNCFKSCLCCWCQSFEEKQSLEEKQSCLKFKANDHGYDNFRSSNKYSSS
Briefly: Endothelin binding inhibition, Binding Test #2: competition with 125I-ET-1 for ETB receptors on transfected COS7 cell membranes.
Excerpt: Compounds that are potential endothelin antagonists are identified by testing their ability to compete with ^125I-labeled ET-1 for binding to human ETA receptors or ETB receptors present on isolated cell membranes. The effectiveness of the test compound as an antagonist or agonist of the biological tissue response of endothelin can also be assessed by measuring the effect on endothelin induced contraction of isolated rat thoracic aortic rings. The ability of the compounds to act as antagonists or agonists for ETB receptors can be assess by testing the ability of the compounds are to inhibit endothelin-1 induced prostacyclin release from cultured bovine aortic endothelial cells.
COS7 cells were transfected with DNA encoding the ETB receptor, The resulting cells, which express the human ETB receptor, were grown to confluence in T-150 flasks. Membrane was prepared as described above. The binding assay was performed as described above using the membrane preparation diluted with binding buffer to a concentration of 1 μg/50 μL.
as §1, with “Briefly, the COS7 cells, described above, that had been transfected with DNA encoding the ETB receptor and express the human ETB receptor on their surfaces were grown to confluence in T-175 flasks. Cells” for “Cells”, “C.” for “C. at”, “once. Five” for “once. 5”, “2 mg/mL.” for “2 mg/mL and stored at −70° C. until use.”
The binding assay was performed as described above using the membrane preparation diluted to give 1 μg/50 μL of binding buffer.

Where [1] appears, read: incubation at 24° C. (values marked †).
Where [2] appears, read: incubation at 4° C. (values without †).

Take `Cc1ccc(CC(=O)c2sccc2S(=O)(=O)Nc2onc(C)c2Cl)c(C)c1` [N-(4-chloro-3-methyl-5-isoxazolyl)-(2,4-dimethylphenylacetyl)thiophene-3-sulfonamide]: the values for the concentration for half-maximal inhibition (IC50) on human ETA receptors (setting [1]) and at human ETB receptor (setting [1]) were 0.4 nM and 4800 nM, respectively.
On to `CCCc1ccc(-c2ccsc2S(=O)(=O)Nc2onc(C)c2Br)cc1` [N-(4-bromo-3-methyl-5-isoxazolyl)-3-(4-propylphenyl)thiophene-2-sulfonamide], for which the figures for the IC50 on human ETA receptors (setting [2]) and on human ETB receptor (setting [1]) were 87.3 nM and 8480 nM, respectively.
As to `COC(=O)c1sccc1S(=O)(=O)Nc1onc(C)c1Cl` [N-(4-chloro-3-methyl-5-isoxazolyl)-2-methoxycarbonylthiophene-3-sulfonamide], the IC50 (usually the concentration needed to halve the response being measured) was determined as 631 nM at human ETA receptors (setting [2]) and 53200 nM at human ETB receptor (setting [2]).
As to `Cc1noc(NS(=O)(=O)c2sccc2-c2ccc(CC(C)C)cc2)c1Br` [N-(4-bromo-3-methyl-5-isoxazolyl)-3-(4-iso-butylphenyl)thiophene-2-sulfonamide], the IC50 on human ETA receptors (setting [1]) was 82.3 nM; on human ETB receptor (setting [1]), 2760 nM.
For `Cc1noc(NS(=O)(=O)c2ccsc2C(=O)OCCc2ccc3c(c2)OCO3)c1Cl` [N-(4-chloro-3-methy-5-isoxazolyl)-2-[2-(3,4-methylenedioxyphenyl)]ethoxycarbonyl-3-sulfonamide] the same measures were 230 nM and 6200 nM.
For `Cc1cc(C)c(C(=O)O)c(C)c1NC(=O)c1sccc1S(=O)(=O)Nc1onc(C)c1Cl` [N-(4-chloro-3-methyl-5-isoxazolyl)-2-(3-carboxyl-2,4,6-trimethylphenylaminocarbonyl)thiophene-3-sulfonamide] the same measures were 11.9 nM and 22400 nM.
The matching figures for `CC(=O)OCc1c(C)cc(C)c(NC(=O)c2sccc2S(=O)(=O)Nc2noc(C)c2Cl)c1C` [N-(4-chloro-5-methyl-3-isoxazolyl)-2-(3-acetoxymethyl-2,4,6-trimethylphenylaminocarbonyl)thiophene-3-sulfonamide]: 0.51 nM and 19700 nM.
In the case of `Cc1noc(NS(=O)(=O)c2c(Cc3ccc4c(c3)OCO4)sc3ccccc23)c1Cl` [N-(4-chloro-3-methyl-5-isoxazolyl)-2-[(3,4-methylenedioxy)benzyl]benzo[b]thiophene-3-sulfonamide], the figures for the IC50 on human ETA receptors (setting [1]) and at human ETB receptor (setting [1]) were 11 ± 5 nM and 936 ± 95 nM, respectively.
Take `Cc1noc(NS(=O)(=O)c2ccsc2C(=O)Nc2ccccc2O)c1Br` [N-(4-bromo-3-methyl-5-isoxazolyl)-2-[(2-hydroxyphenyl)aminocarbonyl]thiophene-3-sulfonamide]: the results for the IC50 on human ETA receptors (setting [1]) and on human ETB receptor (setting [1]) were 13 nM and 38000 nM, respectively.
“N-(4-chloro-3-methyl-5-isoxazolyl)-2-[2-hydroxypropyl-4,5-(methylenedioxy)phenylaminocarbonyl]thiophene-3-sulfonamide”: the concentration for half-maximal inhibition (IC50) on human ETA receptors (setting [1]) was determined as 7.3 nM; on human ETB receptor (setting [1]) it was 8300 nM.
For the compound `Cc1noc(NS(=O)(=O)c2ccsc2C(=O)Nc2cc3c(cc2CNS(C)(=O)=O)OCO3)c1Cl` [N-(4-chloro-3-methyl-5-isoxazolyl)-2-[2-methanesulfonylaminomethyl)-4,5-(methylenedioxy)phenylaminocarbonyl]thiophene-3-sulfonamide], the IC50 stood at 6.8 nM at human ETA receptors (setting [1]) and 19800 nM at human ETB receptor (setting [1]).
On to `Cc1noc(NS(=O)(=O)c2ccsc2C(=O)Oc2ccccc2)c1Br` [N-(4-bromo-3-methyl-5-isoxazolyl)-2-(phenoxycarbonyl)thiophene-3-sulfonamide], for which, at human ETA receptors (setting [1]), the IC50 worked out at 2710 nM. In addition, the inhibition (in general, the percentage by which the read-out fell short of the control) at 100 µM at human ETB receptor (read-out: ETB % inhibition @ 100 μM, @ 100 μM, incubation at 24° C.) was 20%.
As for `CC(=O)OCCOc1cc2c(cc1NC(=O)c1sccc1S(=O)(=O)Nc1onc(C)c1Cl)OCO2` [N-(4-chloro-3-methyl-5-isoxazolyl)-2-[3,4-(methylenedioxy)-6-(2-acetoxyethoxy)]phenylaminocarbonyl]thiophene-3-sulfonamide], the results for the IC50 on human ETA receptors (setting [1]) and on human ETB receptor (setting [1]) were roughly 20 nM and roughly 18000 nM, respectively.

Source of the values: patent US6632829B2, “Sulfonamides and derivatives thereof that modulate the activity of endothelin” (Texas Biotechnology Corp., priority 1996, dated 2003).
